# According to patent US10131639B2, “Formulations of 2-(tert-butylamino)-4-((1R,3R,4R)-3-hydroxy-4methylcyclohexylamino)-pyrimidine-5-carboxamide” (Signal Pharmaceuticals, LLC, priority 2014, dated 2018):
# Read-outs that look alike come from different tables or passages of the source.
# Legend:
# [1] = Solubility in water and SGF (24 hours, ambient temperature, HPLC/UV); assay type: physicochemical; settings: for solubility at 24 h: ambient temperature
# Method: Solubility in Water and SGF: A portion of the sample was weighed into a 2 mL clear HPLC vial. […] The sample was removed from the shaker and pH measurement was performed using a calibrated pH meter. Then a portion of the sample was filtered using […] Nylon-membraned centrifuge tube filter at 14000 RPM for 5 min. The filtrate was analyzed using HPLC/UV with appropriate dilution. The filtered solid residues were analyzed using XRPD.
# For solubility in SGF, the samples were prepared and assayed in the same procedures as mentioned above.
# in vivo = settings: rat
# From the text: Based upon available human PK and preclinical pharmacology data, the doses were anticipated to provide a range of PD effects including both minimum and maximum JNK inhibition.
# [2] = Phase 1 study: safety and tolerability in healthy subjects; assay type: in vivo, human
# From the text: Safety will be monitored throughout the study. Safety evaluations will include adverse event (AE) reporting, PEs, vital signs, 12-lead ECGs, clinical laboratory safety tests (including liver function tests (LFTs), total cholesterol, triglycerides, high-density lipoprotein (HDL), and low-density lipoprotein (LDL)) in addition to standard clinical chemistry, hematology, and urinalysis tests), review of concomitant medications/procedures, evaluation of wound healing, and pregnancy tests for female subjects.
# All AEs will be monitored and recorded throughout the study from the time the informed consent form (ICF) is signed until study completion, and when made known to the Investigator within 28 days after the last dose of Compound 1 (and those serious adverse events (SAEs) made known to the Investigator at any time thereafter that are suspected of being related to IP). All concomitant medications and procedures will be reviewed and recorded from the time the subject signs the ICF until study completion. A follow-up visit (Part 1) or a follow-up phone call (Part 2) will be scheduled for all subjects. If a subject is discontinued from the study for any reason, an ET visit will be performed.
# Part 1: To evaluate the safety of single and multiple oral doses of Compound 1; and Part 2: To evaluate the safety and tolerability of the formulated Compound 1 tablets when administered with food.
# [3] = test system: UVB-induced phospho c-jun expression in skin; assay: Phospho c-Jun immunohistochemistry of UVB-irradiated skin biopsies: quantitative analysis (integrated optical density); assay type: in vivo, human
# From the text: A total of four skin biopsies were taken, one at baseline and one each on the sixth day of each treatment period.
# On baseline (Day −1) and on the sixth day of each dosing period (Days 6, 12, and 18), the skin test sites were delineated on the subject's upper buttock between the beltline and the natal cleft on the right side. The right side of the buttock was divided into four different test sites, one site for 2×MED irradiation at baseline and each of the three dosing periods. Each test site was a minimum of 3 cm×3 cm. Subjects received 2×MED UV irradiation at baseline (Day −1) at approximately the same time that irradiation was scheduled on Days 6, 12, and 18, which was 2 hours postdose. Eight hours after UV irradiation (±10 minutes), a skin punch biopsy was taken from the UV exposure site. The biopsies were processed into tissue slides by a third party and analyzed by immunohistochemistry (IHC). This third party was blinded to the treatment periods (baseline and doses).
# Phospho-c-Jun expression in biopsies was analyzed by IHC. Phospho-c-Jun IHC data were subjectively scored on a scale of 0 to 4 based on the intensity and number of epidermal keratinocyte nuclei stained within the tissue section by trained individuals blinded to treatment. The IHC was also analyzed by automated measurement of integrated optical density.
# Phospho c-Jun IHC images were analyzed at Quintiles for integrated optical density of positive nuclear staining using Aperio imaging software (Leica Biosystems). The Phospho c-jun score (Optical Density Scale) reflects the percentage of nuclei with ‘3+’ staining intensity (the cutoff for determining positive staining) as determined by the Aperio nuclear phospho c-jun quantitative image analysis algorithm.
# [4] = Hygroscopicity by dynamic vapor sorption (DVS); assay type: physicochemical
# From the text: DVS: A portion of the sample was loaded into a quartz sample holder and tested using DVS-Advantage system in two continuous adsorption/desorption cycles. The settings are described as follows:
# Adsorption/desorption cycle 1: 50 to 95 to 0% RH;
# Adsorption/desorption cycle 2: 0 to 95 to 0% RH;
# [5] = Solid state chemical stability under stress conditions (HPLC with UV detection); settings: for Chemical stability (open vial, 2 weeks): HPLC/UV
# Method: Six vials were prepared for each salt. Two samples were stored in the refrigerator. The other four samples in open vials were stored under 4 stress conditions, respectively. […] One set of samples stored in the refrigerator were used to prepare the stock and standard solutions.
# [6] = measured after 24 hours shaking
smiles,measurement,setting,value
"C[C@@H]1CC[C@@H](Nc2nc(NC(C)(C)C)ncc2C(N)=O)C[C@H]1O [Compound 1, 2-(tert-butylamino)-4-((1R,3R,4R)-3-hydroxy-4-methylcyclohexylamino)-pyrimidine-5-carboxamide]",pH of the solubility sample in SGF,[1]; [6],(pH 2.20)
same,pH of the solubility sample in water,[1]; [6],(pH 8.96)
same,solubility at 24 h,"[1]; pH 2.2, thermodynamic from solid, simulated gastric fluid without pepsin, read-out: Solubility in SGF (equiv. to free base)",7170 µg/mL
same,solubility at 24 h,"[1]; pH 8.96, thermodynamic from solid, water, read-out: Solubility in water (equiv. to free base)",18 µg/mL
same,AUC,in vivo,23400 ng·h/mL
same,subjects reporting TEAEs,"[2]; 11 of 28 subjects, 17 TEAEs, Parts 1 and 2 overall",39.3%
same,"clinical laboratory evaluations, vital sign measurements, ECGs",[2]; Parts 1 and 2,No clinically significant changes or findings
same,subjects with an SAE or severe TEAE,"[2]; Parts 1 and 2 overall, 28 subjects",No subjects
same,safety and tolerability,"[2]; multiple doses 60, 160 and 400 mg AIC QD for 6 days",safe and well tolerated
same,diarrhea suspected of being related to Compound 1,[2]; of 28 subjects,2 subjects
same,nausea suspected of being related to Compound 1,[2]; of 28 subjects,4 subjects
same,safety and tolerability,[2]; single doses of 200 mg as formulated tablets (fed and fasted) and AIC (fasted),safe and well tolerated
same,change from baseline in phospho c-jun staining (integrated optical density),"[3]; 60 mg QD×6 days, biopsy 8 hours after 2×MED UVB",not decreased
same,percentage of subjects with a decrease in optical density score compared to baseline,[3]; 60 mg dose (4/14),29%
same,decrease from baseline in phospho c-jun staining (integrated optical density),"[3]; 160 mg QD×6 days, biopsy 8 hours after 2×MED UVB, p=0.18",7.5%
same,percentage of subjects with a decrease in optical density score compared to baseline,[3]; 160 mg dose (11/13),85%
same,decrease from baseline in phospho c-jun staining (integrated optical density),"[3]; 400 mg QD×6 days, biopsy 8 hours after 2×MED UVB, p<0.0001",29.5%
same,percentage of subjects with a decrease in optical density score compared to baseline,[3]; 400 mg dose (13/13),100%
same,inhibition of UVB-induced phospho c-jun expression in skin,"[3]; 60, 160, 400 mg QD×6 days, automated quantitative image analysis",dose-dependent manner
same,"Hygroscopicity (80% RH, 25° C., cycle 1 sorption)","[4]; DVS water uptake, L-tartrate: hydrate, difference between 20% RH and 80% RH",0.17%
same,"hygroscopicity (sorption/desorption, in words)","[4]; DVS, 25° C.",not hygroscopic
same,"Chemical stability (open vial, 2 weeks)",[5]; 80° C./75% RH,no change
same,"Chemical stability (open vial, 2 weeks)",[5]; 80° C.,no change
same,% Remaining at 80° C.,"[5]; solid state, open vial, 80° C., 2 weeks, HPLC with UV detection",101.8%
same,% Remaining at 80° C./75% RH,"[5]; solid state, open vial, 80° C./75% RH, 2 weeks, HPLC with UV detection",100.8%
